Holding throughout (assay type): in vivo
In data set [1] the test system is Beet Armyworm (Spodoptera exigua) ("BAW"). Nature of the data set: Bioassay on beet armyworm (BAW), 128-well diet tray assay. As to conditions: 168 h, 50 μg/cm^2 on artificial diet, second instar BAW larvae, 25° C., five to seven days, average of eight wells, read-out: BAW % Control (or Mortality) rating. Put shortly: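 Percent mortality, averaged across eight wells, was read after five to seven days at 25° C. under 14:10 light-dark. Each well held one to five second-instar larvae on artificial diet that had been treated with 50 μg/cm^2 compound in 90:10 acetone-water and dried.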

For data set [2], the system named is Cabbage Looper (Trichoplusia ni) ("CL"). In words: Bioassay on cabbage looper (CL), 128-well diet tray assay. The settings on record: 168 h, 50 μg/cm^2 on artificial diet, second instar CL larvae, 25° C., five to seven days, average of eight wells, read-out: CL % Control (or Mortality) rating. In outline: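 Percent mortality, averaged across eight replicate wells, was read after five to seven days at 25 °C under a 14:10 photoperiod. Each well held one to five second-instar T. ni on diet carrying a dried 50 μg/cm^2 dose applied in acetone-water 90:10.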

The test system of data set [3] is Green Peach Aphid ("GPA") (Myzus persicae). Nature of the data set: Bioassay on green peach aphid (GPA), foliar spray on cabbage seedlings. The settings on record: Myzus persicae, foliar, 72 h; 200 ppm spray on infested cabbage seedlings, three days, Abbott corrected % control; read-out: GPA % Control (or Mortality) rating. The method, then: Certain molecules disclosed in this document were tested against GPA using procedures described in the following example. In the reporting of the results, the “GPA Rating Table” was used (See Table Section).
Cabbage seedlings grown in 3-inch pots, with 2-3 small (3-5 cm) true leaves, were used as test substrate. The seedlings were infested with 20-50 GPA (wingless adult and nymph stages) one day prior to chemical application. Four pots with individual seedlings were used for each treatment. Test compounds (2 mg) were dissolved in 2 mL of acetone/methanol (1:1) solvent, forming stock solutions of 1000 ppm test compound. The stock solutions were diluted 5× with 0.025% Tween 20 in water to obtain the solution at 200 ppm test compound. A hand-held aspirator-type sprayer was used for spraying a solution to both sides of […] leaves until runoff. Reference plants (solvent check) were sprayed with the diluent only containing 20% by volume of acetone/methanol (1:1) solvent. Treated plants were held in a holding room for three days at approximately 25° C. and ambient relative humidity (RH) prior to grading. Evaluation was conducted by counting the number of live aphids per plant under a microscope. Percent Control was measured by using Abbott's correction formula (W. S. Abbott, “A Method of Computing the Effectiveness of an Insecticide” J. Econ. Entomol. 18 (1925), pp. 265-267) as follows. Corrected % Control=100*(X−Y)/X • where • X=No. of live aphids on solvent check plants and • Y=No. of live aphids on treated plants

In data set [4] the test system is Yellow Fever Mosquito "YFM" (Aedes aegypti). The settings on record: about 1 day-old larvae, 96-well plate, room temperature, 3 days, mortality. Put shortly:
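About 1 day-old Aedes aegypti larvae in liver-powder water added to wells holding compound diluted from 4000 ppm DMSO stock with 90:10 water:acetone, 6 replicate plates. Plates kept covered at room temperature for 3 days. Wells scored for mortality and reported as rating categories.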

`CC(C)c1cc(F)ccc1N1C(=O)CS/C1=N\C(=O)NCCc1ccc(-c2ncn(-c3ccc(OC(F)(F)F)cc3)n2)cc1` [P28, (Z)-1-(3-(4-fluoro-2-isopropylphenyl)-4-oxothiazolidin-2-ylidene)-3-(4-(1-(4-(trifluoromethoxy)phenyl)-1H-1,2,4-triazol-3-yl)phenethyl)urea]: the mortality at 50 µg/cm2 in data set [1] and in data set [2] was 50 to 100% each time. Besides, the mortality at 200 ppm in data set [3] is 0%. Further, in data set [4], the “YFM % Control (or Mortality) rating” value was “A (80-100)”.
As for `COc1ccc(N2C(=O)CS/C2=N\C(=O)NCCc2ccc(-c3ncn(-c4ccc(OC(F)(F)F)cc4)n3)cc2)c(C)c1` [P44, (Z)-1-(3-(4-methoxy-2-methylphenyl)-4-oxothiazolidin-2-ylidene)-3-(4-(1-(4-(trifluoromethoxy)phenyl)-1H-1,2,4-triazol-3-yl)phenethyl)urea], the mortality at 50 µg/cm2 in data set [1] and in data set [2] was 50 to 100% in each case. Also, the mortality at 200 ppm in data set [3] was found to be 0%. Also, the “YFM % Control (or Mortality) rating” value in data set [4] was “A (80-100)”.
Take `CC(C)c1cccc(N2C(=O)CS/C2=N\C(=O)NCCc2ccc(-c3ncn(-c4ccc(OC(F)(F)F)cc4)n3)cc2)c1` [P51, (Z)-1-(3-(3-isopropylphenyl)-4-oxothiazolidin-2-ylidene)-3-(4-(1-(4-(trifluoromethoxy)phenyl)-1H-1,2,4-triazol-3-yl)phenethyl)urea]: the mortality at 50 µg/cm2 in data set [1] and in data set [2] was 50 to 100% each time. Also, the mortality at 200 ppm in data set [3] fell in the range of 0 to 80%. Moreover, the “YFM % Control (or Mortality) rating” value in data set [4] was “A (80-100)”.
`Cc1ccc(C(C)C)c(N2C(=O)CS/C2=N\C(=O)NCCc2ccc(-c3ncn(-c4ccc(C(F)(F)F)cc4)n3)cc2)c1` [P52, (Z)-1-(3-(2-isopropyl-5-methylphenyl)-4-oxothiazolidin-2-ylidene)-3-(4-(1-(4-(trifluoromethyl)phenyl)-1H-1,2,4-triazol-3-yl)phenethyl)urea]: the mortality at 50 µg/cm2 in data set [1] and in data set [2] was 50 to 100% each time. Also, the mortality at 200 ppm in data set [3] came out at 0%. The “YFM % Control (or Mortality) rating” value in data set [4] was “A (80-100)”.
As for `CCc1ccccc1N1C(=O)CS/C1=N\C(=O)NCCCCc1ccc(-c2ncn(-c3ccc(OC(F)(F)F)cc3)n2)cc1` [P145, P522, (Z)-1-(3-(2-ethylphenyl)-4-oxothiazolidin-2-ylidene)-3-(4-(4-(1-(4-(trifluoromethoxy)phenyl)-1H-1,2,4-triazol-3-yl)phenyl)butyl)urea], the mortality at 50 µg/cm2 in data set [1] and in data set [2] was 50 to 100% each time. Moreover, the mortality at 200 ppm in data set [3] stood at 0%. Further, in data set [4], the “YFM % Control (or Mortality) rating” value is “A (80-100)”.
Consider `Cc1ccc(C(C)C)c(N2C(=O)CS/C2=N\C(=O)NCCCCc2ccc(-c3ncn(-c4ccc(OC(F)(F)F)cc4)n3)cc2)c1` [P150, P363, (Z)-1-(3-(2-isopropyl-5-methylphenyl)-4-oxothiazolidin-2-ylidene)-3-(4-(4-(1-(4-(trifluoromethoxy)phenyl)-1H-1,2,4-triazol-3-yl)phenyl)butyl)urea], for which the mortality at 50 µg/cm2 in data set [1] and in data set [2] was 50 to 100% each time. The mortality at 200 ppm in data set [3] was in the range of 0 to 80%. Moreover, in data set [4], the “YFM % Control (or Mortality) rating” value was “A (80-100)”.
As to `Cc1ccc(C(C)C)c(N2C(=O)CS/C2=N\C(=O)NCCCCc2ccc(-c3ncn(-c4ccc(C(F)(F)F)cc4)n3)cc2)c1` [P159, (Z)-1-(3-(2-isopropyl-5-methylphenyl)-4-oxothiazolidin-2-ylidene)-34-(4-(4-(1-(4-(trifluoromethyl)phenyl)-1H-1,2,4-triazol-3-yl)phenyl)butyl)urea], the mortality at 50 µg/cm2 in data set [1] and in data set [2] was 50 to 100% each time. The mortality at 200 ppm in data set [3] fell in the range of 0 to 80%. For the same compound, in data set [4], the “YFM % Control (or Mortality) rating” value is on record as “A (80-100)”.

For the origin of these results see patent publication US9783532B2, “Molecules having certain pesticidal utilities, and intermediates, compositions, and processes related thereto” (Dow AgroSciences LLC, priority 2013, dated 2017).
